Test results: patent US20140128352A1, “COMPOUNDS AND METHODS FOR MODULATING MITOCHONDRIAL METABOLISM AND REACTIVE OXYGEN SPECIES PRODUCTION” (Buck Institute for Research on Aging, priority 2012, published 2014)
Like-named read-outs stand apart in the source and are kept apart here.

Experiments:
[1] = molecular target: T1, outer ubiquinone binding site of complex III (IIIQO) (Rattus norvegicus, UniProt P00159+P20788); assay: High-throughput screen: ROS production from outer ubiquinone binding site of complex III (IIIQO); assay type: biochemical
T1 construct: freshly isolated muscle mitochondria were assayed; from tissue; host or cells: rat skeletal muscle mitochondria (Wistar, Harlan Laboratories)

[2] = molecular target: T2, flavin binding site of complex I (IF) (Rattus norvegicus, UniProt Q5XIH3); assay: High-throughput screen: ROS production from flavin binding site of complex I (IF); assay type: biochemical
T2 construct: freshly isolated muscle mitochondria were assayed; from tissue; host or cells: rat skeletal muscle mitochondria (Wistar, Harlan Laboratories)
T2 sequence (Q5XIH3 21-464 limits assumed, one chain of several): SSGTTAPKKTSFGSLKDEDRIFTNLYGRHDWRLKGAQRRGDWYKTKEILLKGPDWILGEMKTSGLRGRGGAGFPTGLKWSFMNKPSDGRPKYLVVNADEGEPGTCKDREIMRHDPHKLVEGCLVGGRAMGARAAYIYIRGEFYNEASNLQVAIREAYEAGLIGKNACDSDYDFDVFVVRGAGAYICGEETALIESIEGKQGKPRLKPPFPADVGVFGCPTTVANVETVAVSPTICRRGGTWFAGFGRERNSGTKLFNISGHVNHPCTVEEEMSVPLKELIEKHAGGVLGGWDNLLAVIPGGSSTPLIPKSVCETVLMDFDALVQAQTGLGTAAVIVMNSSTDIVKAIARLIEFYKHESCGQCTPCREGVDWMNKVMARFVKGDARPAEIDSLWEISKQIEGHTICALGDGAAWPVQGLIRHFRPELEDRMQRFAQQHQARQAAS
Procedure: (§1) Skeletal muscle mitochondria were isolated from 5-8 week old female Wistar rats (Harlan Laboratories). Minced muscle was homogenized in buffer containing bacterial protease Type VIII prior to differential centrifugation to separate mitochondria from other tissue components. Unless otherwise stated, freshly isolated muscle mitochondria were assayed in buffer containing 120 mM KCl, 5 mM HEPES, 1 mM EGTA, 0.3% (w/v) bovine serum albumin. Where indicated, CaCl2 was added to yield a final free concentration of 250 nM calcium at pH 7.0 at 37° C.
Master screening plates were prepared using a Biomek FX liquid handling workstation (Beckman) to transfer 1 μL of each compound into individual wells on 96-well storage plates (80 compounds per plate). […] Just prior to use, plates were brought to room temperature and diluted 300-fold with standard buffer (13.3X=33.3 μM). To monitor the performance of each assay throughout screening and to provide intra-plate normalization reference points, DMSO negative controls and known mitochondrial inhibitor positive controls were included on each Master compound plate.
(§2) Total amounts of superoxide and H2O2 production were determined fluorometrically as H2O2, without distinguishing between them, in the presence of exogenous superoxide dismutase (25 units/mL final), horseradish peroxidase (1 unit/mL final), and Amplex UltraRed (25 μM final) as described (Affourtit, C. et al. (2012) Measurement of proton leak and electron leak in isolated mitochondria. Methods Mol. Biol. 810: 165-82). Just prior to use, a bulk 3.3X solution was made in standard buffer and distributed into a 2 mL deep well 96-well transfer plate.
To assess the effects of a compound on ROS production from the flavin binding site of complex I (IF), Start Solution containing 5 mM glutamate, 5 mM malate and 4 μM rotenone was distributed into standard 96-well transfer plates. A Biomek FX workstation was programmed to dispense solutions into black 96-well assay plates. Solutions were dispensed to all assay plates in the following order: ROS Detection solution described in Example 3, Mitochondria solution described in Example 1 to a final concentration of 0.3 mg/ml, and Compound dilutions described in Example 2. Duplicate assay plates were made and each was initiated by the addition of 3.3X Start solution containing 5 mM glutamate, 5 mM malate and 4 μM rotenone. Plates were incubated in the dark at room temperature for 30-40 minutes before acquiring endpoint fluorescence using a Victor 3V plate reader (Perkin Elmer) equipped with 550/590 nm excitation/emission filters.
The fluorescence values in each well were scaled as the percent change from the intra-plate DMSO controls with the appropriate inhibitor positive controls defined as −100%. Following initial scaling, intra-plate normalized values were subjected to Tukey's two-way median polish to remove row and column dependent positional effects (Malo, N. et al. (2006) Statistical practice in high-throughput screening data analysis. Nat. Biotechnol. 24(2): 167-75).

[3] = molecular target: T3, glycerol-3-phosphate dehydrogenase (GPDH) (Rattus norvegicus, UniProt P35571); assay: High-throughput screen: ROS production from glycerol-3-phosphate dehydrogenase (GPDH); assay type: biochemical; parameters: inhibition: dose or concentration left out as unconfirmed; settings: for inhibition / GPDH: percent change in ROS from DMSO controls; for inhibition at 2.5 µM: Table 6, 25 mM glycerol phosphate, rotenone, antimycin A, malonate, myxothiazol, compounds 2.5 μM, scaled to IQ positive controls, read-out: % Reduction in ROS Production (GPDH)
T3 construct: The activity of GPDH in intact mitochondria (0.3 mg/mL) was measured; from tissue; host or cells: rat skeletal muscle mitochondria (Wistar, Harlan Laboratories)
T3 sequence (P35571 43-727): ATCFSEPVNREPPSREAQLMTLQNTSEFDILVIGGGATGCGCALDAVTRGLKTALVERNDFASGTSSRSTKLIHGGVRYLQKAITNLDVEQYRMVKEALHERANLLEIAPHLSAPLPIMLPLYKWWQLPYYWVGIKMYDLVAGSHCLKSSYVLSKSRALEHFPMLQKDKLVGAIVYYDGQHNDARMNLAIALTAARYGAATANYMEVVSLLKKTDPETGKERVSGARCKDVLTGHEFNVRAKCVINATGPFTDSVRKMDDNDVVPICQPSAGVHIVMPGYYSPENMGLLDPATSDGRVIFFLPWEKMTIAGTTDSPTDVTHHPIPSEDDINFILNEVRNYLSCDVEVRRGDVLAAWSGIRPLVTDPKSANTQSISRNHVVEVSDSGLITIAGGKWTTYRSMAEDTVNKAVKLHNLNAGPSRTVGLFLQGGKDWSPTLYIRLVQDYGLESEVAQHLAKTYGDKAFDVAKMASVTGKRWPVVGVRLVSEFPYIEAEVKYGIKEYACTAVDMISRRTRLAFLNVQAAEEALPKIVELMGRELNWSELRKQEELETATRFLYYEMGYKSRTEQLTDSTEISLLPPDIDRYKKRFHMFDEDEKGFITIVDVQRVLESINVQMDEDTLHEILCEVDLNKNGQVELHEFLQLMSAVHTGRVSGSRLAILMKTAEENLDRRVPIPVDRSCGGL

[4] = molecular target: T4, succinate dehydrogenase/complex II (SDH) (Rattus norvegicus, UniProt P21913+Q641Z9+Q6PCT8+Q920L2); assay: High-throughput screen: ROS production from succinate dehydrogenase/complex II (SDH); assay type: biochemical; settings: for inhibition at 2.5 µM / SDH: percent change in ROS from DMSO controls; for % Reduction in ROS Production (SDH): Table 5, 15 μM palmitoyl carnitine, 2.5 μM antimycin A, 2 μM myxothiazol, compounds 2.5 μM, percent change from DMSO
T4 construct: freshly isolated muscle mitochondria were assayed; from tissue; host or cells: rat skeletal muscle mitochondria (Wistar, Harlan Laboratories)
T4 sequence (Q920L2 35-656): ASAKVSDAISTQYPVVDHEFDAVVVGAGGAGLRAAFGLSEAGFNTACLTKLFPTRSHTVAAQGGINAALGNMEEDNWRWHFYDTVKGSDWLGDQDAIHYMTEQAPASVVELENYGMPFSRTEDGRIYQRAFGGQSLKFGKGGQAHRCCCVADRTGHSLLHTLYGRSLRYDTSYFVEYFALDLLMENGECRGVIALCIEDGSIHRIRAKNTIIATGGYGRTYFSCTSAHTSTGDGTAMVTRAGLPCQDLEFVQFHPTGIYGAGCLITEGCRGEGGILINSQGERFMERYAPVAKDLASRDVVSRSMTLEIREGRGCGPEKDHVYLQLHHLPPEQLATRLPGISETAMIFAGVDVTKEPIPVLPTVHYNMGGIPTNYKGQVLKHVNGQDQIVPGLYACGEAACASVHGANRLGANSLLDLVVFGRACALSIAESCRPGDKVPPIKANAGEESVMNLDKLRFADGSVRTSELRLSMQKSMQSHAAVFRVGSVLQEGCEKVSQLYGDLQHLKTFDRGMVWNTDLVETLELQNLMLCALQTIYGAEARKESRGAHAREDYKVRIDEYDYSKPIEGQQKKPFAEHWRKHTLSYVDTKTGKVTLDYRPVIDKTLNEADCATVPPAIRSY
T4 sequence (P21913 31-282): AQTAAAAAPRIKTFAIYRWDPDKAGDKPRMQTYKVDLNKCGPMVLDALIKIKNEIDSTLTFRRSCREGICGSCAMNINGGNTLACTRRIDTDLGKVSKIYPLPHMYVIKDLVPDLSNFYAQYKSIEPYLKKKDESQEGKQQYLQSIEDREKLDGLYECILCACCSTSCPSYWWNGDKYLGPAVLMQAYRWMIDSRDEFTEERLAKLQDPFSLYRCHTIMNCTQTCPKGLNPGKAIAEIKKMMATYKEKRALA
T4 sequence (Q641Z9 30-169 limits assumed): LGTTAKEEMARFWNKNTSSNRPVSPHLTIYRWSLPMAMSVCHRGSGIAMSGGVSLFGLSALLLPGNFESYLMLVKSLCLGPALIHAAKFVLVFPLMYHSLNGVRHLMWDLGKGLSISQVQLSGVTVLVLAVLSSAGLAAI
T4 sequence (Q6PCT8 57-159): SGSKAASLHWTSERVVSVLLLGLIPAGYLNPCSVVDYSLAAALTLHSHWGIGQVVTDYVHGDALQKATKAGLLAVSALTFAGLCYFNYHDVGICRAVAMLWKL

[5] = system: ubiquinone binding site of complex I (IQ); assay: High-throughput screen: ROS production from ubiquinone binding site of complex I (IQ), isolated skeletal muscle mitochondria; assay type: biochemical, rat; settings: for IQ: percent change in ROS from DMSO controls
Procedure: as §1
Compounds (10 mM in DMSO) were randomly selected from a library of 24,000 compounds obtained from ChemBridge and curated by the lab of Robert Hughes at the Buck Institute. Master screening plates were prepared using a Biomek FX liquid handling workstation (Beckman) to transfer 1 μL of each compound into individual wells on 96-well storage plates (80 compounds per plate). Master plates were sealed with foil and stored at −80° C. Just prior to use, plates were brought to room temperature and diluted 300-fold with standard buffer (13.3X=33.3 μM). To monitor the performance of each assay throughout screening and to provide intra-plate normalization reference points, DMSO negative controls and known mitochondrial inhibitor positive controls were included on each Master compound plate.
as §2
To assess the effects of a compound on ROS production from the ubiquinone binding site of complex I (IQ), Start Solution containing 5 mM succinate was distributed into standard 96-well transfer plates. A Biomek FX workstation was programmed to dispense solutions into black 96-well assay plates. Solutions were dispensed to all assay plates in the following order: ROS Detection solution described in Example 3, Mitochondria solution described in Example 1 to a final concentration of 0.1 mg/ml, and Compound dilutions described in Example 2. Duplicate assay plates were made and each was initiated by the addition of 3.3X Start solution containing 5 mM succinate. Plates were incubated in the dark at room temperature for 30-40 minutes before acquiring endpoint fluorescence using a Victor 3V plate reader (Perkin Elmer) equipped with 550/590 nm excitation/emission filters.
The fluorescence values in each well were scaled as the percent change from the intra-plate DMSO controls with the appropriate inhibitor positive controls defined as −100%. Following initial scaling, intra-plate normalized values were subjected to Tukey's two-way median polish to remove row and column dependent positional effects (Malo et al, 2006).

[6] = system: mitochondrial membrane potential (ΔΨm); assay: Membrane potential (ΔΨm) counterscreen with TMRM; settings: malate, nigericin
Procedure: Skeletal muscle mitochondria were isolated from 5-8 week old female Wistar rats (Harlan Laboratories). Minced muscle was homogenized in buffer containing bacterial protease Type VIII prior to differential centrifugation to separate mitochondria from other tissue components. Unless otherwise stated, freshly isolated muscle mitochondria were assayed in buffer containing 120 mM KCl, 5 mM HEPES, 1 mM EGTA, 0.3% (w/v) bovine serum albumin. Where indicated, CaCl2 was added to yield a final free concentration of 250 nM calcium at pH 7.0 at 37° C. Total and free calcium concentrations were calculated using the Extended MaxChelator program at http://maxchelator.stanford.edu.
Compounds were manually transferred from the Master Compound Plate to two black 96-well assay plates. A bulk solution was prepared containing the following components (final concentrations) and manually dispensed into the two ΔΨm assay plates: the potentiometric dye TMRM (5 μM), mitochondria (0.2 mg/mL), glutamate (5 mM), malate (5 mM), and nigericin (80 ng/mL).

[7] = Table 7, percent change in ROS from DMSO controls, read-out: IIIQO
[8] = Table 8, percent change in ROS from DMSO controls
[9] = Table 9, percent change in ROS from DMSO controls, read-out: IIIQo
[10] = Table 3, 5 mM glutamate, 5 mM malate, 4 μM rotenone, compounds 2.5 μM, percent change from DMSO, positive control −100%, read-out: % Reduction in ROS production (IF)
[11] = Table 7, percent change in ROS from DMSO controls, read-out: IF
[12] = Table 9, percent change in ROS from DMSO controls
[13] = Table 4, 5 mM succinate, 4 μM rotenone, 2.5 μM antimycin A, compounds 2.5 μM, percent change from DMSO, read-out: % Reduction in ROS production (IIIQO)
[14] = Table 7, percent change in ROS from DMSO controls

| SMILES | inhibition at 2.5 µM [1, 7] [%] | IIIQO [1, 8] | inhibition at 2.5 µM [1, 9] [%] | inhibition at 2.5 µM [2, 11] [%] | IF [2, 8] | IF [2, 12] | inhibition ([3]; Table 7) [%] | GPDH ([3]; Table 8) | GPDH ([3]; Table 9) | inhibition at 2.5 µM ([4]; Table 7) [%] | SDH ([4]; Table 8) | SDH ([4]; Table 9) | IQ ([5]; Table 7) | IQ ([5]; Table 8) | IQ ([5]; Table 9) | ΔΨm ([6]; Table 8, glutamate) | ΔΨm ([6]; Table 9, glutamate) | inhibition at 2.5 µM [1, 13] [%] | % Reduction in ROS Production (SDH) [4] [%] | other results |
| --- | --- | --- | --- | --- | --- | --- | --- | --- | --- | --- | --- | --- | --- | --- | --- | --- | --- | --- | --- | --- |
| Cc1ccc(S(=O)(=O)Nc2nnc(C)s2)cc1 [Compound 27] | 0.1 | −0.1 | 0.1 | 19.6 | −19.6 | −19.6 | 0.4 | −0.4 | −0.4 | -0.8 | 0.8 | 0.8 | 0.0 | 0.0 | 0.0 | 1.6 | 1.6 |  |  | inhibition at 2.5 µM [2, 10]: 19.6% |
| O=C(Nc1ccc(Br)cc1)[C@@H]1C2C=CC(C2)[C@@H]1C(=O)O (stereo partly drawn) [Compound 28] | 2.5 | −2.5 | 2.5 | 19.1 | −19.1 | −19.1 | 2.3 | −2.3 | −2.3 | -1.3 | 1.3 | 1.3 | 0.2 | 0.2 | 0.2 | −1.3 | −1.3 |  |  | inhibition at 2.5 µM [2, 10]: 19.1% |
| Cc1ccc(CCSc2ccc(F)cc2)cn1 [Compound 35] | 34.9 | −34.9 | 34.9 | 0.7 | −0.7 | −0.7 | 5.3 | −5.3 | −5.3 | -0.2 | 0.2 | 0.2 | 1.3 | 1.3 | 1.3 | 0.6 | 0.6 | 34.9 |  |  |
| c1cc2c3c(ccc(CSCCc4ccncc4)c3c1)CC2 [Compound 36] | 33.6 | −33.6 | 33.6 | -0.6 | 0.6 | 0.6 | 4.9 | −4.9 | −4.9 | 1.1 | −1.1 | −1.1 | 3.7 | 3.7 | 3.7 | 0.0 | 0.0 | 33.6 |  |  |
| Cc1cc(C)c(S(=O)(=O)N2CCCC2=O)c(C)c1 [Compound 40] | 25.1 | −25.1 | 25.1 | -1.8 | 1.8 | 1.8 | 4.2 | −4.2 | −4.2 | 2.7 | −2.7 | −2.7 | 4.3 | 4.3 | 4.3 | 0.7 | 0.7 | 25.1 |  |  |
| COc1ccc(-c2ccccc2)cc1NCC1=CC[C@H]2C[C@@H]1C2(C)C [Compound 41] | 24.7 | −24.7 | 24.7 | -6.6 | 6.6 | 6.6 | -2.6 | 2.6 | 2.6 | -1.2 | 1.2 | 1.2 | 0.2 | 0.2 | 0.2 | 2.3 | 2.3 | 24.7 |  |  |
| Fc1ccc(SCCc2ccccn2)cc1 [Compound 42] | 24.1 | −24.1 | 24.1 | 2.6 | −2.6 | −2.6 | 0.3 | −0.3 | −0.3 | -0.7 | 0.7 | 0.7 | 7.9 | 7.9 | 7.9 | 0.4 | 0.4 | 24.1 |  |  |
| O=C(O)/C=C/C(=O)Nc1ccc(/C=C/c2ccccc2)cc1 [Compound 49] | -10 | 10.0 | -10 | -1 | 1.0 | 1.0 | 12.7 | −12.7 | −12.7 | 1 | −1.0 | −1.0 | 1.7 | 1.7 | 1.7 | −0.3 | −0.3 |  |  | inhibition at 2.5 µM [3]: 12.7% |
| Cl.OC12CCCCC1C(c1cccc(Cl)c1)NCC2 (stereo not drawn) [Compound 51] | 9.8 | −9.8 | 9.8 | -5.5 | 5.5 | 5.5 | 12 | −12.0 | −12.0 | 1.8 | −1.8 | −1.8 | −2.8 | −2.8 | −2.8 | 0.9 | 0.9 |  |  |  |
| Oc1nnc(Cc2ccncc2)c2ccccc12 [Compound 72] | -5.4 | 5.4 | -5.4 | -2.6 | 2.6 | 2.6 | -1.7 | 1.7 | 1.7 | 27.4 | −27.4 | −27.4 | 0.4 | 0.4 | 0.4 | 1.0 | 1.0 |  | −27.4 |  |
| O=C(Nc1ccccc1[N+](=O)[O-])c1cccc(S(=O)(=O)Nc2ccccc2)c1 [Compound 73] |  | −1.3 |  |  | −0.7 | −0.7 |  | −2.4 | −2.4 |  | −26.9 | −26.9 | −4.6 | −4.6 | −4.6 | −0.2 | −0.2 |  | −26.9 | IIIQO [1, 14]: −1.3; IIIQO [1, 12]: −1.3; IF [2, 14]: −0.7; GPDH ([3]; Table 7): −2.4; SDH ([4]; Table 7): −26.9 |
| COc1ccc(C2C(C#N)=C(N)Oc3c2c(=O)oc2ccccc32)cc1O (stereo not drawn) [Compound 74] | 7.6 | −7.6 | 7.6 | -0.4 | 0.4 | 0.4 | 3.5 | −3.5 | −3.5 | 20.9 | −20.9 | −20.9 | −0.7 | −0.7 | −0.7 | 0.8 | 0.8 |  | −20.9 |  |
| COc1ccc(NC(=S)NC(=O)c2ccco2)cc1 [Compound 75] |  |  |  |  |  |  |  |  |  |  |  |  |  | −50 |  | −2 |  |  | −22 | inhibition at 2.5 µM ([1]; Table 8, percent change in ROS from DMSO controls, read-out: IIIQO): -3%; inhibition at 2.5 µM [2, 10]: 83%; inhibition at 2.5 µM ([2]; Table 8, percent change in ROS from DMSO controls, read-out: IF): 83%; inhibition at 2.5 µM [3]: 16%; inhibition ([3]; Table 8): 16%; inhibition at 2.5 µM ([4]; Table 8): 22%; % Reduction in ROS production (IQ) ([5]; Table 2, 5 mM succinate, compounds 2.5 μM, percent change from DMSO, positive control −100%): −50% |
